From patent US6806286B2, “Pyrrolecarboxamides and pyrrolethioamides as fungicides” (Syngenta Crop Protection, Inc., priority 2000, dated 2004)

How the values were obtained:
[1] = tested on: Podosphaera leucotricha; experiment: Action against Podosphaera leucotricha/apple (powdery mildew on apple); type: in vivo; conditions: apple seedlings cv. McIntosh, spray 0.002% active ingredient, inoculated one day after application, assessed after 12 days incubation
Method: Action Against Podosphaera leucotricha/apple (Powdery Mildew on Apple)
5 week old apple seedlings cv. […] One day after application apple plants are inoculated by shaking plants infected with apple powdery mildew above the test plants. After an incubation period of 12 days at 22° C. and 60% r. h. under a light regime of 14/10 h (light/dark) the disease incidence is assessed.

[2] = tested on: Etysiphe graminis; experiment: Action against Etysiphe graminis/barley (powdery mildew on barley); type: in vivo; conditions: barley plants cv. Express, spray 0.02% active ingredient, inoculated one day after application, assessed after 6 days incubation
Method: Action Against Etysiphe graminis/barley (Powdery Mildew on Barley)
1 week old barley plants cv. […] One day after application barley plants are inoculated by shaking powdery mildew infected plants above the test plants. After an incubation period of 6 days at 20° C./18° C. (day/night) and 60% r. h. in a greenhouse the disease incidence is assessed.

[3] = tested on: Septoria nodorum; experiment: Action against Septoria nodorum/wheat (Septoria leaf spot on wheat); type: in vivo; conditions: wheat plants cv. Arina, spray 0.02% active ingredient, inoculated one day after application, assessed 11 days after inoculation
Method: Action Against Septoria nodorum/wheat (Septoria Leaf Spot on Wheat)
1 week old wheat plants cv. […] One day after application wheat plants are inoculated by spraying a spore suspension (5×10^5 conidia/ml) on the test plants. After an incubation period of 1 day at 20° C. and 95% r. h. plants are kept for 10 days at 20° C. and 60% r.h. in a greenhouse. The disease incidence is assessed 11 days after inoculation.

[4] = tested on: Puenophora teres; experiment: Action against Puenophora teres/barley (net blotch on barley); type: in vivo; conditions: barley plants cv. Express, spray 0.002% active ingredient, inoculated two days after application, assessed 4 days after inoculation
Method: Action Against Puenophora teres/barley (Net Blotch on Barley)
1 week old barley plants cv. […] Two days after application barley plants are inoculated by spraying a spore suspension (3×10^4 conidia/ml) on the test plants. After an incubation period of 2 days at 20° C. and 95% r. h. plants are kept for 2 days at 20° C. and 60% r.h. in a greenhouse. The disease incidence is assessed 4 days after inoculation.

[5] = tested on: Botryts cinerea; experiment: Action against Botryts cinerea/tomato (Botrytis on tomatoes); type: in vivo; conditions: tomato plants cv. Roter Gnom, spray 0.002% active ingredient, inoculated two days after application, assessed after 4 days incubation
Method: Action Against Botryts cinerea/tomato (Botrytis on Tomatoes)
4 week old tomato plants cv. […] Two days after application tomato plants are inoculated by spraying a spore suspension (1×10^5 conidia/ml) on the test plants. After an incubation period of 4 days at 20° C. and 95% r. h. in a growth chamber the disease incidence is assessed.

[6] = tested on: Venturia Inaequalis; experiment: Action against Venturia inaequalis/apple (scab on apple); type: in vivo; conditions: apple seedlings cv. McIntosh, spray 0.02% active ingredient, inoculated one day after application, assessed after 4+4+4 days incubation
Method: Action Against Venturia Inaequalis/apple (Scab on Apple)
4 week old apple seedlings cv. […] One day after application apple plants are inoculated by spraying a spore suspension (4×10^5 conidia/ml) on the test plants. After an incubation period of 4 days at 21° C. and 95% r. h. the plants are placed for 4 days at 21° C. and 60% r. h. in a greenhouse. After another 4 day incubation period at 21° C. and 95% r. h. the disease incidence is assessed.

[7] = tested on: Botryis cinerea; experiment: Action against Botryis cinerea/apple (Botrytis on apple fruits); type: in vivo, B. cinerea; conditions: apple fruit cv. Golden Delicious, 30 μl droplets 0.002% active ingredient in drilled holes, inoculated two hours after application, assessed after 7 days
Method: Action Against Botryis cinerea/apple (Botrytis on Apple Fruits)
In an apple fruit cv. […] Two hours after application 50 μl of a spore suspension of B. cinerea (4×10^5 conidia/ml) are pipetted on the application sites. After an incubation period of 7 days at 22° C. in a growth chamber the disease incidence is assessed.

[8] = tested on: Boftis cinerea; experiment: Action against Boftis cinerea/grape (Botrytis on grapes); type: in vivo; conditions: grape seedlings cv. Gutedel, spray 0.002% active ingredient, inoculated two days after application, assessed after 4 days incubation
Method: Action Against Boftis cinerea/grape (Botrytis on Grapes)
5 week old grape seedlings cv. […] Two days after application grape plants are inoculated by spraying a spore suspension (1×10^6 conidia/ml) on the test plants. After an incubation period of 4 days at 21° C. and 95% r. h. in a greenhouse the disease incidence is assessed.

Measured: efficacy (disease incidence)

CC1CC(C)(C)c2cccc(NC(=O)c3cn(C)cc3C(F)(F)C(F)(F)F)c21 (racemic) [Compound 10.5]
strong efficacy: all assays above

Cc1cn(C)cc1C(=O)Nc1cnccc1-c1ccc(F)cc1 [Compound 6.12]
strong efficacy: all assays above

Cn1cc(C(=O)Nc2ccccc2-c2ccc(Cl)cc2)c(C(F)F)c1 [Compound 1.144]
strong efficacy: all assays above

CC(C)c1cn(C)cc1C(=O)Nc1ccccc1-c1ccc(F)cc1 [Compound 1.269]
strong efficacy: all assays above

Cc1cn(C)cc1C(=O)Nc1cnccc1-c1ccc(Cl)cc1 [Compound 6.10]
strong efficacy: all assays above

CCc1cn(C)cc1C(=O)Nc1ccccc1-c1ccc(Cl)cc1 [Compound 1.260]
strong efficacy: all assays above

Cc1cn(C)cc1C(=O)Nc1ccccc1C1=CCCCC1 [Compound 1.5]
strong efficacy: all assays above

Cn1cc(C(=O)Nc2ccsc2-c2ccc(F)cc2)c(C(F)(F)C(F)(F)F)c1 [Compound 2.192]
strong efficacy: all assays above

Cn1cc(C(=O)Nc2ccccc2-c2ccncc2F)c(C2CC2)c1 [Compound 1.244]
strong efficacy: all assays above

Cc1cn(C)cc1C(=O)Nc1snnc1-c1ccc(F)cc1 [Compound 4.12]
strong efficacy: all assays above

Cn1cc(C(=O)Nc2cnccc2-c2ccc(Cl)cc2)c(C2CC2)c1 [Compound 6.49]
strong efficacy: all assays above

CCc1cn(C)cc1C(=O)Nc1ccccc1-c1ccc(F)cc1 [Compound 1.261]
strong efficacy: all assays above
